Several values for one entry are separate records, joined by “and”; a condition that tells them apart may be missing. Equal entries are not always repeated. Where two headings read alike, the source gives them in different places.
Legend:
HepG2 cells = test system: HepG2 cells; parameters: method as in earlier work; conditions: free fatty acid mixture (oleate:palmitate = 2:1); cited from earlier work
carboxyesterase-2 (CES2) = conditions: cited from earlier work
[1] = test system: adipose stem cells (ASCs); parameters: method as in PMID 31861646; conditions: cited from earlier work
[2] = cited from earlier work; for Cmax: 4.6 g AGN root powder per subject (0.055 mg D, 0.184 mg DA, 1.095 mg nodakenin); for t1/2 / tmax: 4.6 g AGN root powder per subject
sleep architectures = test system: sleep architectures; parameters: method as in PMID 28066138; conditions: DA 50 mg/kg, po; cited from earlier work
GDH = test system: GDH; parameters: method as in PMID 36455296; conditions: read-out: GDH inhibition IC50; cited from earlier work
[3] = test system: acute thermal pain models and CINP; parameters: method as in PMID 36249788; conditions: cited from earlier work
CDK7/cyclin H = molecular target: T1, CDK7/cyclin H (Homo sapiens, UniProt P50613); test: Reaction Biology kinase activity inhibition; type: biochemical; conditions: initial screening
T1 construct: purchased Reaction Biology
Text: (§1) The second screening was the Reaction Biology® (Malvern, PA) kinase activity inhibition tests, which screened for more than 600 protein kinases and lipid kinases, using miniaturized radioisotope-based assay platform with γ-^33P-ATP, followed by confirmation with IC50 kinase profiling service with 5 concentrations of test compound (i.e., DOH and DA) with curve fitting.

CAMK1d = molecular target: T2, CAMK1d (Homo sapiens, UniProt Q8IU85); test: Reaction Biology kinase activity inhibition; type: biochemical; conditions: initial screening
T2 construct: purchased Reaction Biology
Text: as §1

PIP5K1A = molecular target: T3, PIP5K1A (Homo sapiens, UniProt Q99755); test: KINOMEscan competition binding; conditions: initial screening, DOH 50 µM; read-out: Substrate bound % Control
T3 construct: purchased Eurofins DiscoverX (KINOMEscan)
Procedure: (§2) Two distinct platforms were used for initial screening with 50 µM DOH vs. DMSO vehicle. The first was the Eurofins DiscoverX KINOMEscan® (Freemont, CA USA) profiling platform, which employed a proprietary active site-directed competition binding assay to quantitatively measure interactions between a test compound (i.e., DOH) and 468 human protein kinases and disease relevant mutant variants either directly (sterically) or indirectly (allosterically) to prevent a kinase binding to its immobilized substrate (ligand). The top 8 hits were subjected to secondary screening verification by DOH concentration-titration for dissociation constant (Kd). For ROCK1 and ROCK2, DA was chosen for Kd titration as well, because it is ~ 10 × higher than D in peripheral circulation due to its resistance to hydrolysis by carboxyesterase-2 (Fig. 1C).

GRK4 = molecular target: T4, GRK4 (Homo sapiens, UniProt P32298); test: KINOMEscan competition binding; conditions: initial screening, DOH 50 µM; read-out: Substrate bound % Control
T4 construct: purchased Eurofins DiscoverX (KINOMEscan)
Procedure: as §2

[4] = molecular target: T5, JAK2(JH1domain-catalytic) (Homo sapiens, UniProt O60674); test: KINOMEscan competition binding; conditions: initial screening, DOH 50 µM; read-out: Substrate bound % Control
T5 construct: JAK2(JH1domain-catalytic); purchased Eurofins DiscoverX (KINOMEscan)
Procedure: as §2

BIKE (BMP2K) = molecular target: T6, BIKE (BMP2K) (Homo sapiens, UniProt Q9NSY1); test: KINOMEscan competition binding; conditions: initial screening, DOH 50 µM; read-out: Substrate bound % Control
T6 construct: purchased Eurofins DiscoverX (KINOMEscan)
Procedure: as §2

SRPK3 = molecular target: T7, SRPK3 (Homo sapiens, UniProt Q9UPE1); test: KINOMEscan competition binding; conditions: initial screening, DOH 50 µM; read-out: Substrate bound % Control
T7 construct: purchased Eurofins DiscoverX (KINOMEscan)
Procedure: as §2

RIOK1 = molecular target: T8, RIOK1 (Homo sapiens, UniProt Q9BRS2); test: KINOMEscan competition binding; conditions: initial screening, DOH 50 µM; read-out: Substrate bound % Control
T8 construct: purchased Eurofins DiscoverX (KINOMEscan)
Procedure: as §2

PIK3C2G = molecular target: T9, PIK3C2G (Homo sapiens, UniProt O75747); test: KINOMEscan competition binding; conditions: initial screening, DOH 50 µM; read-out: Substrate bound % Control
T9 construct: purchased Eurofins DiscoverX (KINOMEscan)
Procedure: as §2

LKB1 (STK11) = molecular target: T10, LKB1 (STK11) (Homo sapiens, UniProt Q15831); test: KINOMEscan competition binding
T10 construct: purchased Eurofins DiscoverX (KINOMEscan)
Procedure: as §2

ERK4 (MAPK4) = molecular target: T11, ERK4 (MAPK4) (Homo sapiens, UniProt P31152); test: KINOMEscan competition binding
T11 construct: purchased Eurofins DiscoverX (KINOMEscan)
Procedure: as §2

YSK4 (MAP3K19) = molecular target: T12, YSK4 (MAP3K19) (Homo sapiens, UniProt Q56UN5); test: KINOMEscan competition binding; conditions: initial screening, DOH 50 µM; read-out: Substrate bound % Control
T12 construct: purchased Eurofins DiscoverX (KINOMEscan)
Procedure: as §2

DYRK1B = molecular target: T13, DYRK1B (Homo sapiens, UniProt Q9Y463); test: KINOMEscan competition binding; conditions: initial screening, DOH 50 µM; read-out: Substrate bound % Control
T13 construct: purchased Eurofins DiscoverX (KINOMEscan)
Procedure: as §2

PIK3CG = molecular target: T14, PIK3CG (Homo sapiens, UniProt P48736); test: KINOMEscan competition binding; conditions: initial screening, DOH 50 µM; read-out: Substrate bound % Control
T14 construct: purchased Eurofins DiscoverX (KINOMEscan)
Procedure: as §2

[5] = molecular target: T15, JAK3(JH1domain-catalytic) (Homo sapiens, UniProt P52333); test: KINOMEscan competition binding; conditions: initial screening, DOH 50 µM; read-out: Substrate bound % Control
T15 construct: JAK3(JH1domain-catalytic); purchased Eurofins DiscoverX (KINOMEscan)
Procedure: as §2

CDC2L1 (CDK11B) = molecular target: T16, CDC2L1 (CDK11B) (Homo sapiens, UniProt P21127); test: KINOMEscan competition binding
T16 construct: purchased Eurofins DiscoverX (KINOMEscan)
Procedure: as §2

[6] = parameters: method as in PMID 27080944, PMID 23364885, PMID 29121805; conditions: oral gavage dosing of AGN or D/DA; cited from earlier work
CLP microbial exposure = conditions: ip twice at 2 h and 4 h after CLP; cited from earlier work
[7] = test system: BOCCA and MCAO ischemic damage; parameters: method as in PMID 19801740; conditions: 20 mg/kg, pre or post-treatment; cited from earlier work
[8] = test system: acetic acid-induced writhing; parameters: method as in PMID 19557373; conditions: cited from earlier work
AChE = test system: AChE; parameters: method as in PMID 11374978; conditions: read-out: AChE inhibition IC50; cited from earlier work
experimental sepsis = test system: experimental sepsis; parameters: method as in PMID 20157398; conditions: ip 1 ~ 100 mg/kg before LPS/GalN or high-dose LPS (20 mg/kg); cited from earlier work
[9] = DOH (50 µM), Data 1 and Data 2, read-out: % Enzyme Activity (relative to DMSO controls)
[10] = read-out: Substrate bound % Control
[11] = validation Kd titration, 0.003 to 50 µM

T1 sequence (P50613 whole entry): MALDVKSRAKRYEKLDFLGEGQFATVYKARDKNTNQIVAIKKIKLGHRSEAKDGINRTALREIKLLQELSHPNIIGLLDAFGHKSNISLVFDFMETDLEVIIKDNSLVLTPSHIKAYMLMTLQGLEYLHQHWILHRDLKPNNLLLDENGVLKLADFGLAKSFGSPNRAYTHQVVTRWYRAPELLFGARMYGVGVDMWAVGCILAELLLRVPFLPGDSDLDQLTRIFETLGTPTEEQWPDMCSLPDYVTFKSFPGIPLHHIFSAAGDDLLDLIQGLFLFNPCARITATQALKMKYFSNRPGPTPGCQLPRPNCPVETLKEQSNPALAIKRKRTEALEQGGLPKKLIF
T1 sequence (P51946 whole entry partner): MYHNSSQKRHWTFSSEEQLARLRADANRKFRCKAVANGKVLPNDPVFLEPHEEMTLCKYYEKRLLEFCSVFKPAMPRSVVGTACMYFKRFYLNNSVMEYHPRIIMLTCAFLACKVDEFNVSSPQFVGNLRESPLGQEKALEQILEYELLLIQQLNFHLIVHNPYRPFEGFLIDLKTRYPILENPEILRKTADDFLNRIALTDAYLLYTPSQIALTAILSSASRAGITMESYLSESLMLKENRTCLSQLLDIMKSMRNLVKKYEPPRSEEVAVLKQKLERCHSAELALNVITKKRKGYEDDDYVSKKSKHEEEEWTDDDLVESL
T1 sequence (P51948 whole entry partner): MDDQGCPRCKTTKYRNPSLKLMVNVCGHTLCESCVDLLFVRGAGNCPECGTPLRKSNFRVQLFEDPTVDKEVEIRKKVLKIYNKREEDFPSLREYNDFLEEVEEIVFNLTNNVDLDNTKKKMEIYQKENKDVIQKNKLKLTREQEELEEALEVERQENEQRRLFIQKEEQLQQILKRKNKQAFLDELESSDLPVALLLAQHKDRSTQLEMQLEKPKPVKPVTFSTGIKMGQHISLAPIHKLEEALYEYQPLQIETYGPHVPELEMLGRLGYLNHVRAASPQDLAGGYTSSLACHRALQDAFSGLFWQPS
T2 sequence (Q8IU85 whole entry): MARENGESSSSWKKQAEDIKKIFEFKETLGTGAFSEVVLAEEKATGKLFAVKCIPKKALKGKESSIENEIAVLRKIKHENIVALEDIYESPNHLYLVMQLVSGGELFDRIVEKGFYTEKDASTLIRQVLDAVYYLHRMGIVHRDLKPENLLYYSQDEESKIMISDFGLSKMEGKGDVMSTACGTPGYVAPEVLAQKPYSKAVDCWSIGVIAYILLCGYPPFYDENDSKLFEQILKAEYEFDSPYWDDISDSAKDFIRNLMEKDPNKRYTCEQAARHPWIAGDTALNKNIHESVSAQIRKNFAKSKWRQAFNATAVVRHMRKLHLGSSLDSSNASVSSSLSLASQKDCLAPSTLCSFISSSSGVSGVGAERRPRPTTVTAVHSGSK
T11 sequence (P31152 whole entry): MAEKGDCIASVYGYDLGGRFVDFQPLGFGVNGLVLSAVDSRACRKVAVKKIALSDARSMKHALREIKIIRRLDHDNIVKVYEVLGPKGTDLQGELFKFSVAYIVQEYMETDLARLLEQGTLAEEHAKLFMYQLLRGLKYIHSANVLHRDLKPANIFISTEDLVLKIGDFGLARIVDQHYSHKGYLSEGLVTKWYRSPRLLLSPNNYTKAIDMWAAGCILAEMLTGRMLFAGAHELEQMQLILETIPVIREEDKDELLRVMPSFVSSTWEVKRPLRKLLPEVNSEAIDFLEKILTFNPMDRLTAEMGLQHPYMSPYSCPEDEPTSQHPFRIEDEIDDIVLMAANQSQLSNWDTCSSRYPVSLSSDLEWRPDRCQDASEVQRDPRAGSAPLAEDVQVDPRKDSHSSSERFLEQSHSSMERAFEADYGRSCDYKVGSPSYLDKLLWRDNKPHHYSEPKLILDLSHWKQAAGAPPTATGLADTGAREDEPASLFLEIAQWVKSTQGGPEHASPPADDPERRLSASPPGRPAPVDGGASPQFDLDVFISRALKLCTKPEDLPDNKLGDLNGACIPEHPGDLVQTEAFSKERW
T16 sequence (P21127 whole entry): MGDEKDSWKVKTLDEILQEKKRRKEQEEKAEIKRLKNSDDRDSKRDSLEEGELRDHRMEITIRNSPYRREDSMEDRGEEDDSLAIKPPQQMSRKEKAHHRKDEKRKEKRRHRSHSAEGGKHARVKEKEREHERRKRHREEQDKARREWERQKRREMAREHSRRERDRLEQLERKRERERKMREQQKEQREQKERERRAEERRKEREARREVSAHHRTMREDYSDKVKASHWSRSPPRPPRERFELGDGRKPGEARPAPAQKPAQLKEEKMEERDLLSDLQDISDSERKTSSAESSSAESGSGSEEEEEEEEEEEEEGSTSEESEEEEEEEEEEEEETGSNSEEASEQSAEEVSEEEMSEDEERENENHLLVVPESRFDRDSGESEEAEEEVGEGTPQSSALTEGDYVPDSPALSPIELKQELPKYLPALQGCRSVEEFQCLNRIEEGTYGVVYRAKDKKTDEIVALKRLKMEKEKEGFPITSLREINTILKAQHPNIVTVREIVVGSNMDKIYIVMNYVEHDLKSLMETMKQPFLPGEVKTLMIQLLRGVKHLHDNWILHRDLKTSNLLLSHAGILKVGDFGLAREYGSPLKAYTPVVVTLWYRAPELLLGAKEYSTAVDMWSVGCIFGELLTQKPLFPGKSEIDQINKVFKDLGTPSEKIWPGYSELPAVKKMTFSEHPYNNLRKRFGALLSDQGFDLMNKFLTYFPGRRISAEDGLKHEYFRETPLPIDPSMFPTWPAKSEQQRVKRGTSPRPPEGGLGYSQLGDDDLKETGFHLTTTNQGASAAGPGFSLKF
T10 sequence (Q15831 whole entry): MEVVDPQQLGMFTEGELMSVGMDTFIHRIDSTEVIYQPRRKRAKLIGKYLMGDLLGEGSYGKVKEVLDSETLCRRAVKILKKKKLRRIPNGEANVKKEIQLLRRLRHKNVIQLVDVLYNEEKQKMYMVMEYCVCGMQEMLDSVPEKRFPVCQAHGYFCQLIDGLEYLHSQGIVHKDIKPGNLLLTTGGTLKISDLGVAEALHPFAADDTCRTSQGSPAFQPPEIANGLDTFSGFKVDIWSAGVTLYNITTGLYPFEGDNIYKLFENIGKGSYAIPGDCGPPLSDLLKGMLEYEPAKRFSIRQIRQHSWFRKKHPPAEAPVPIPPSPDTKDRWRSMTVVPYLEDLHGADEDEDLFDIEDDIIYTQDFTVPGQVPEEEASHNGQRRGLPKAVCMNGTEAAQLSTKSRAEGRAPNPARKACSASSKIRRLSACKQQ
T15 sequence (P52333 822-1111 limits assumed): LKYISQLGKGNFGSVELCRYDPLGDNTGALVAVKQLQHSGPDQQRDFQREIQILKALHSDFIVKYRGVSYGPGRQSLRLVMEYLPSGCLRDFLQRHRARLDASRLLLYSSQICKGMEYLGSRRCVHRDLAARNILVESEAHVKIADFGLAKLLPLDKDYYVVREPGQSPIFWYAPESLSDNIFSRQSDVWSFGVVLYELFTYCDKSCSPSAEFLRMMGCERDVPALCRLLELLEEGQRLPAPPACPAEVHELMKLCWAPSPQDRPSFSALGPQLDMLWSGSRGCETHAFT
T8 sequence (Q9BRS2 whole entry): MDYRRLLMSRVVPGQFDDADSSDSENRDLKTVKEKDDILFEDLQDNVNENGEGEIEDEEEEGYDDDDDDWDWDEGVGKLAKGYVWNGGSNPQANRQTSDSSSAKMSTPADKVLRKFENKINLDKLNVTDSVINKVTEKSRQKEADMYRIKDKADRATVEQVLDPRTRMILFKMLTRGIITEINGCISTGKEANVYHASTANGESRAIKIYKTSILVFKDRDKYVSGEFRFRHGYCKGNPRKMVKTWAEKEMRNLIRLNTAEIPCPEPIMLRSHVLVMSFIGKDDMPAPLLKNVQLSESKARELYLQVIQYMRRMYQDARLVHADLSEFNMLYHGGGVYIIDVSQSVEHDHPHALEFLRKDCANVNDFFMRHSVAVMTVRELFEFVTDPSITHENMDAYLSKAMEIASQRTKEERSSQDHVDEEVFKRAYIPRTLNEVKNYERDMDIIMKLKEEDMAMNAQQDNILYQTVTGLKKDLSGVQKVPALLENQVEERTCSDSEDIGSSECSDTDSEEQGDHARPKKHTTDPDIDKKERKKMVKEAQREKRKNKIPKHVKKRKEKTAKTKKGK
T4 sequence (P32298 whole entry): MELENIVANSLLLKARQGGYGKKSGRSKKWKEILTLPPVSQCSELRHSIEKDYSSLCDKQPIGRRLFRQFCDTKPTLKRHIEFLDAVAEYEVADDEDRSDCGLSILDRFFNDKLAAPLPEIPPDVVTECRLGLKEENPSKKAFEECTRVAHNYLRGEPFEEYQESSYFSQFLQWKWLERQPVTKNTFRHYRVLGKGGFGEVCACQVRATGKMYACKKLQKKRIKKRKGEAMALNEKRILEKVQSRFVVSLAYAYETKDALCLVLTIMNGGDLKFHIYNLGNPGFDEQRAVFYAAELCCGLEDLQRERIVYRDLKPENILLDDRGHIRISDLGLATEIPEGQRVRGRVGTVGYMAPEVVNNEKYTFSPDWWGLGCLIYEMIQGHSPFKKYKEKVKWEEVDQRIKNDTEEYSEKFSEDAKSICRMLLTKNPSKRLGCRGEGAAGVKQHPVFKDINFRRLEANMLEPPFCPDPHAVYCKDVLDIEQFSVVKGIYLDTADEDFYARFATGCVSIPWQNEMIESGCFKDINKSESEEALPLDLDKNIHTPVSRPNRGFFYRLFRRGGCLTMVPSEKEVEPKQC
T5 sequence (O60674 849-1124 limits assumed): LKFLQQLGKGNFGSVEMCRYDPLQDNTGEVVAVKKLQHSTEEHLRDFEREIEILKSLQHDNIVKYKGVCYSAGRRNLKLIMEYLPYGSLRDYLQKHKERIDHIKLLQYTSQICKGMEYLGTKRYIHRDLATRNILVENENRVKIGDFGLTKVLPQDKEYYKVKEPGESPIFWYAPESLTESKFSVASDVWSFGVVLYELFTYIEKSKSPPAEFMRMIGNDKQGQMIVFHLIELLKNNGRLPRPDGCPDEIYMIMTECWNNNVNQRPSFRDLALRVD

C/C=C(/C)C(=O)O[C@H]1Cc2cc3ccc(=O)oc3cc2OC1(C)C [DA, decursinol angelate]
lipid accumulation (HepG2 cells): suppressed lipid accumulation
CES2 contribution to metabolism to DOH (carboxyesterase-2 (CES2)): not
adipocyte differentiation [1]: significantly inhibited adipocyte differentiation
Cmax [2]: 7.72 ng/mL
t1/2 [2]: 4.04 h
tmax [2]: 0.31 h
total sleep time (EEG) (sleep architectures): increased total sleep time
IC50 (GDH): ~1.4 µM and 1.4 µM

CC1(C)Oc2cc3oc(=O)ccc3cc2C[C@@H]1O [DOH, decursinol]
hypothermia and sedation (ataxia) [3]: dose dependent hypothermia
antinociception in hot plate and tail-flick assays ([3]; ip DOH 50 mg/kg): replicated antinociception effects
mechanical allodynia of mice with cisplatin-neuropathy (Von Fry test) ([3]; ip DOH 50 mg/kg): reversed the mechanical allodynia
time to tolerance development ([3]; once-daily ip, hot plate, tail-flick and CINP mice): ~ 10 days
inhibition at 50 µM (CDK7/cyclin H; DOH 50 µM): 25.7%
% Enzyme Activity (relative to DMSO controls) (CDK7/cyclin H; DOH (50 µM), Data 1 and Data 2): 73.9%
remaining activity at 50 µM (CDK7/cyclin H; [9]): 74.8%
inhibition at 50 µM (CAMK1d; DOH 50 µM): 27.1%
% Enzyme Activity (relative to DMSO controls) (CAMK1d; DOH (50 µM), Data 1 and Data 2): 70.6%
remaining activity at 50 µM (CAMK1d; [9]): 75.3%
remaining binding at 50 µM (PIP5K1A): 47%
remaining binding at 50 µM (GRK4): 47%
remaining binding at 50 µM [4]: 49%
remaining binding at 50 µM (BIKE (BMP2K)): 45%
remaining binding at 50 µM (SRPK3): 45%
remaining binding at 50 µM (RIOK1): 50%
remaining binding at 50 µM (PIK3C2G): 32%
remaining binding at 50 µM (LKB1 (STK11); [10]): 7.6%
Kd (LKB1 (STK11); [11]): > 50 µM
remaining binding at 50 µM (ERK4 (MAPK4); [10]): 3.3%
Kd (ERK4 (MAPK4); [11]): > 50 µM
remaining binding at 50 µM (YSK4 (MAP3K19)): 34%
remaining binding at 50 µM (DYRK1B): 28%
remaining binding at 50 µM (PIK3CG): 46%
remaining binding at 50 µM [5]: 45%
remaining binding at 50 µM (CDC2L1 (CDK11B); [10]): 19%
Kd (CDC2L1 (CDK11B); [11]): > 50 µM
DOH level achievable in the blood [6]: double digit micromolar
dose giving plateau of therapeutic benefit (CLP microbial exposure): ≥ 10 mg/kg
Cmax [2]: 0.92 ng/mL
t1/2 [2]: 2.62 h
tmax [2]: 0.64 h
protection against ischemia stroke models [7]: failed to protect
analgesic effect ([8]; oral 50 mg/kg): efficacious
analgesic effect ([8]; oral 25 or 10 mg/kg): not at 25 or 10 mg/kg
IC50 (AChE): 28 µM
reduction of sepsis lethality ED50 (experimental sepsis): ~ 10 mg/kg
